Assay results taken from ChEMBL document CHEMBL4190346, “Structure-based design, synthesis, and biological evaluation of withaferin A-analogues as potent apoptotic inducers” (Eur J Med Chem, 2017).

How the values were obtained:
HeLa [1] = experiment: Cytotoxicity against human HeLa cells assessed as reduction in cell viability using compound addition to cell culture cells in lag phase of growth and incubated for 48 hrs by MTT assay; format: functional, cell-based
HeLa [2] = experiment: Cytotoxicity against human HeLa cells assessed as reduction in cell viability using compound addition to cell culture cells in log phase of growth and incubated for 48 hrs by MTT assay; format: functional, cell-based
A549 [3] = experiment: Cytotoxicity against human A549 cells assessed as reduction in cell viability using compound addition to cell culture cells in lag phase of growth and incubated for 48 hrs by MTT assay; format: functional, cell-based
A549 [4] = experiment: Cytotoxicity against human A549 cells assessed as reduction in cell viability using compound addition to cell culture cells in log phase of growth and incubated for 48 hrs by MTT assay; format: functional, cell-based
MCF7 [5] = experiment: Cytotoxicity against human MCF7 cells assessed as reduction in cell viability using compound addition to cell culture cells in lag phase of growth and incubated for 48 hrs by MTT assay; format: functional, cell-based
MCF7 [6] = experiment: Cytotoxicity against human MCF7 cells assessed as reduction in cell viability using compound addition to cell culture cells in log phase of growth and incubated for 48 hrs by MTT assay; format: functional, cell-based
Vero [7] = experiment: Cytotoxicity against African green monkey Vero cells assessed as reduction in cell viability using compound addition to cell culture cells in lag phase of growth and incubated for 48 hrs by MTT assay; format: cell-based, Chlorocebus sabaeus
Vero [8] = experiment: Cytotoxicity against African green monkey Vero cells assessed as reduction in cell viability using compound addition to cell culture cells in log phase of growth and incubated for 48 hrs by MTT assay; format: cell-based, Chlorocebus sabaeus
[9] = Homo sapiens, HeLa, 48 h, read-out: IC50
[10] = Homo sapiens, A549, 48 h, read-out: IC50
[11] = Homo sapiens, MCF7, 48 h, read-out: IC50
[12] = Chlorocebus sabaeus, Vero, 48 h, read-out: IC50

Structure (SMILES) | IC50 (HeLa [1]; [9]) [µM] | IC50 (HeLa [2]; [9]) [µM] | IC50 (A549 [3]; [10]) [µM] | IC50 (A549 [4]; [10]) [µM] | IC50 (MCF7 [5]; [11]) [µM] | IC50 (MCF7 [6]; [11]) [µM] | IC50 (Vero [7]; [12]) [µM] | IC50 (Vero [8]; [12]) [µM] | IC50 (HeLa [1]; hela) | IC50 (HeLa [2]; hela) | IC50 (A549 [3]; a549) | IC50 (A549 [4]; a549) | IC50 (MCF7 [5]; mcf7) | IC50 (MCF7 [6]; mcf7) | IC50 (Vero [7]; vero) | IC50 (Vero [8]; vero)
CCCCCCCCCCCC(=O)OCC1=C(C)C[C@H]([C@@H](C)[C@H]2CC[C@H]3[C@@H]4C[C@H]5O[C@]56[C@@H](O)C=CC(=O)[C@]6(C)[C@H]4CC[C@]23C)OC1=O | 3.7 | 4.7 | 10.2 | 12.2 | 2.4 | 3.5 | 1.9 | 4.7 |  |  |  |  |  |  |  | 
CC1=C(CCl)C(=O)O[C@@H]([C@@H](C)[C@H]2CC[C@H]3[C@@H]4C[C@H]5O[C@]56[C@@H](O)C=CC(=O)[C@]6(C)[C@H]4CC[C@]23C)C1 | 2.5 | 2.8 | 2 | 3.6 | 1.1 | 1 | 0.5 | 0.6 |  |  |  |  |  |  |  | 
CC1=C(COC(=O)c2cccc3ccccc23)C(=O)O[C@@H]([C@@H](C)[C@H]2CC[C@H]3[C@@H]4C[C@H]5O[C@]56[C@@H](OC(=O)c5cccc7ccccc57)C=CC(=O)[C@]6(C)[C@H]4CC[C@]23C)C1 | > 40 | > 40 | > 40 | > 40 | > 40 | > 40 | > 40 | > 40 |  |  |  |  |  |  |  | 
CCCCCCCC(=O)OCC1=C(C)C[C@H]([C@@H](C)[C@H]2CC[C@H]3[C@@H]4C[C@H](Cl)[C@]5(O)[C@@H](O)C=CC(=O)[C@]5(C)[C@H]4CC[C@]23C)OC1=O | 29.5 | 32.9 | 31.3 | > 40 | 15.1 | 13.8 | 16.4 | 16.1 |  |  |  |  |  |  |  | 
CC1=C(COC(=O)c2ccc(Br)cc2)C(=O)O[C@@H]([C@@H](C)[C@H]2CC[C@H]3[C@@H]4C[C@H]5O[C@]56[C@@H](O)C=CC(=O)[C@]6(C)[C@H]4CC[C@]23C)C1 | 1.2 | 3.8 | 2.9 | 4.2 | 1 | 2.3 | 0.5 | 0.7 |  |  |  |  |  |  |  | 
C=CCOC(=O)/C(CO)=C(C)\C=C\[C@@H](C)[C@H]1CC[C@H]2[C@@H]3C[C@H]4O[C@]45[C@@H](O)C=CC(=O)[C@]5(C)[C@H]3CC[C@]12C | 4.2 | 7.1 | 7.9 | 8.3 | 2.4 | 2.4 | 2.2 | 4.7 |  |  |  |  |  |  |  | 
CCCCCCCCCCCC(=O)OCC1=C(C)C[C@H]([C@@H](C)[C@H]2CC[C@H]3[C@@H]4C[C@H]5O[C@]56[C@@H](OC(=O)CCCCCCCCCCC)C=CC(=O)[C@]6(C)[C@H]4CC[C@]23C)OC1=O |  |  |  |  |  |  |  |  | Nd(Insoluble) | Nd(Insoluble) | Nd(Insoluble) | Nd(Insoluble) | Nd(Insoluble) | Nd(Insoluble) | Nd(Insoluble) | Nd(Insoluble)
CC1=C(C=O)C(=O)O[C@@H]([C@@H](C)[C@H]2CC[C@H]3[C@@H]4C[C@H]5O[C@]56C(=O)C=CC(=O)[C@]6(C)[C@H]4CC[C@]23C)C1 | 12.3 | 18.5 | 16.9 | 16.1 | 8.9 | 11 | 12.8 | 13.4 |  |  |  |  |  |  |  | 
CC1=C(CO[Si](C)(C)C(C)(C)C)C(=O)O[C@@H]([C@@H](C)[C@H]2CC[C@H]3[C@@H]4C[C@H](O)[C@]5(O)[C@@H](O)C=CC(=O)[C@]5(C)[C@H]4CC[C@]23C)C1 | 14.8 | 12 | 14.2 | 10 | 7.5 | 5.6 | 7.9 | 7.6 |  |  |  |  |  |  |  | 
CCCCCCCC(=O)OCC1=C(C)C[C@H]([C@@H](C)[C@H]2CC[C@H]3[C@@H]4C[C@H](Cl)[C@]5(O)[C@@H](OC(=O)CCCCCCC)C=CC(=O)[C@]5(C)[C@H]4CC[C@]23C)OC1=O | > 40 | > 40 | > 40 | > 40 | > 40 | > 40 | > 40 | > 40 |  |  |  |  |  |  |  | 
CC1=C(COC(=O)C(C)(C)C)C(=O)O[C@@H]([C@@H](C)[C@H]2CC[C@H]3[C@@H]4C[C@H]5O[C@]56C(=O)C=CC(=O)[C@]6(C)[C@H]4CC[C@]23C)C1 | 4 | 1.9 | 3.7 | 2.3 | 1 | 1.2 | 4.1 | 1 |  |  |  |  |  |  |  | 
CC1=C(C)C(=O)O[C@@H]([C@@H](C)[C@H]2CC[C@H]3[C@@H]4C[C@H]5O[C@]56[C@@H](O)CCC(=O)[C@]6(C)[C@H]4CC[C@]23C)C1 | > 40 | > 40 | > 40 | > 40 | > 40 | > 40 | > 40 | > 40 |  |  |  |  |  |  |  | 
CC(=O)OCC1=C(C)C[C@H]([C@@H](C)[C@H]2CC[C@H]3[C@@H]4C[C@H]5O[C@]56[C@@H](OC(=O)c5ccc(Br)cc5)C=CC(=O)[C@]6(C)[C@H]4CC[C@]23C)OC1=O | 1.2 | 2.1 | 2.1 | 1.7 | 0.4 | 0.6 | 0.5 | 0.9 |  |  |  |  |  |  |  | 
CC1=C(CO)C(=O)O[C@@H]([C@@H](C)[C@H]2CC[C@H]3[C@@H]4C[C@H]5O[C@]56[C@@H](O)[C@@H](O)CC(=O)[C@]6(C)[C@H]4CC[C@]23C)C1 [VISCOSALACTONE B] | > 40 | > 40 | > 40 | > 40 | > 40 | > 40 | > 40 | > 40 |  |  |  |  |  |  |  | 
CC1=C(CO[Si](C)(C)C(C)(C)C)C(=O)O[C@@H]([C@@H](C)[C@H]2CC[C@H]3[C@@H]4C[C@H](Cl)[C@]5(O)[C@@H](O)C=CC(=O)[C@]5(C)[C@H]4CC[C@]23C)C1 | 3.1 | 3.4 | 4.1 | 3.8 | 2.5 | 3.1 | 3.5 | 3.1 |  |  |  |  |  |  |  | 
COC(=O)CCC(=O)OCC1=C(C)C[C@H]([C@@H](C)[C@H]2CC[C@H]3[C@@H]4C[C@H](Cl)[C@]5(O)[C@@H](OC(=O)CCC(=O)OC)C=CC(=O)[C@]5(C)[C@H]4CC[C@]23C)OC1=O | 14 | 8 | 7.8 | 8.9 | 5.5 | 4.8 | 3.9 | 4.1 |  |  |  |  |  |  |  | 
CC1=C(CO)C(=O)O[C@@H]([C@@H](C)[C@H]2CC[C@H]3[C@@H]4C[C@H]5O[C@]56[C@@H](O)[C@@H](NCc5ccccc5)CC(=O)[C@]6(C)[C@H]4CC[C@]23C)C1 | 8.5 | 11 | 10 | 13.8 | 7.2 | 6.6 | 13.1 | 7.8 |  |  |  |  |  |  |  | 
COc1ccc(C(=O)OCC2=C(C)C[C@H]([C@@H](C)[C@H]3CC[C@H]4[C@@H]5C[C@H](Cl)[C@]6(O)[C@@H](O)C=CC(=O)[C@]6(C)[C@H]5CC[C@]34C)OC2=O)cc1 | 26.4 | 37.7 | > 40 | > 40 | 3 | 6.8 | 3.8 | 6.8 |  |  |  |  |  |  |  | 
CC1=C(CO)C(=O)O[C@@H]([C@@H](C)[C@H]2CC[C@H]3[C@@H]4C[C@H]5O[C@]56[C@@H](O)CC[C@@H](O)[C@]6(C)[C@H]4CC[C@]23C)C1 | > 40 | > 40 | > 40 | > 40 | > 40 | > 40 | > 40 | > 40 |  |  |  |  |  |  |  | 
CC(=O)OCC1=C(C)C[C@H]([C@@H](C)[C@H]2CC[C@H]3[C@@H]4C[C@H]5O[C@]56C(=O)C=CC(=O)[C@]6(C)[C@H]4CC[C@]23C)OC1=O | 16.3 | 17.5 | 13.2 | 16.2 | 6.4 | 6.8 | 3.9 | 6.4 |  |  |  |  |  |  |  | 
CCC(=O)OCC1=C(C)C[C@H]([C@@H](C)[C@H]2CC[C@H]3[C@@H]4C[C@H]5O[C@]56C(=O)C=CC(=O)[C@]6(C)[C@H]4CC[C@]23C)OC1=O | 4.7 | 6.8 | 4.2 | 8.3 | 6 | 2.3 | 3.8 | 1.1 |  |  |  |  |  |  |  | 
CO[C@H]1CC(=O)[C@]2(C)[C@H]3CC[C@]4(C)[C@@H]([C@H](C)[C@H]5CC(C)=C(CO)C(=O)O5)CC[C@H]4[C@@H]3C[C@H]3O[C@]32[C@H]1O | > 40 | > 40 | > 40 | > 40 | > 40 | > 40 | > 40 | > 40 |  |  |  |  |  |  |  | 
